Source: US12121522B2, “Methods of treating cancer with an mTOR inhibitor” (Revolution Medicines, Inc., priority 2022, dated 2024)

Legend:
[1] = system: MCF7 PIK3CA^E545K breast cancer CDX; assay: MCF7 breast cancer xenograft; type: in vivo, mouse
Text: FIGS. 1A-1B show Dose-Dependent Antitumor Effects of Repeated RMC-5552 Weekly Treatment in the MCF7 Xenograft Model of Human Estrogen Receptor Positive Breast Cancer in Athymic Nude Mice. Abbreviations: ANOVA=analysis of variance; IP=intraperitoneal; QW=once weekly. […] Each animal represented as a separate bar. Number of animals per group=12. Numbers indicate number of regressions at respective doses (defined as >10% reduction in tumor volume from starting volume) in each group.
(§1) The antitumor activity of RMC-5552 as a single agent against tumors predicted to be dependent on the mTOR pathway and/or bearing specific PI3K/mTOR pathway-activating mutations (i.e., PIK3CA^mut, phosphatase and tensin homolog [PTEN^LOF], or co-mutation of both and tuberous sclerosis complex [TSC^LOF]) was evaluated in selected CDX and/or PDX models
(§2) Table 1. RMC-5552 was administered IP once weekly at 1, 3, 10, and 30 mg/kg. In the breast cancer MCF7 PIK3CA^[…] model, a higher dose of 50 mg/kg once weekly and an alternate dose regimen of 30 mg/kg every 10 days were also evaluated.

[2] = system: BXF 2211 TSC1^-/- bladder cancer; assay: BXF 2211 bladder cancer xenograft; type: in vivo, mouse
Method: as §1, §2

tumor p4EBP1 = assay: PK-pharmacodynamics of tumor p4EBP1 and pS6RP in MCF7 tumor-bearing mice; type: in vivo, mouse
Text: FIGS. 4A-4C show Pharmacokinetic-Pharmacodynamic Profile for RMC-5552 Modulation of Tumor p4EBP1 and pS6RP in MCF7 Tumor Bearing Athymic Nude Mice. Abbreviations: IP=intraperitoneal; p4EBP1=phosphorylated eukaryotic translation initiation factor 4E-binding protein 1; PK=pharmacokinetic; pS6RP=phosphorylated S6 ribosomal protein; u=unbound. […] Data represent means±standard errors (n=3).
Colors of symbols denote time of tissue harvest following IP administration of a single dose of RMC-5552. […] Data represent means standard errors (n=3).
The in vivo PK-pharmacodynamic relationship for inhibition of activated mTOR pathway signaling of RMC-5552 as a single agent was determined in the breast cancer MCF7 and HCC-1954 PIK3CA mutant CDX models.
Consistent with inhibition of mTORC1 signaling in vitro, IP administration of RMC-5552 to nude mice produced a dose and plasma concentration-dependent-inhibition of tumor p4EBP1 and pS6RP (a direct substrate of P70S6K) in PI3K mutant breast cancer MCF7 xenograft models FIG. 5. Inhibition of p4EBP1 was maximal at 24 to 48 hours after treatment.

mucositis/stomatitis = assay: Mouthwash prophylaxis of mucositis in patients on RMC-5552; type: in vivo, human; settings: RMC-5552 8 to 12 mg IV weekly; without TM N=20, with TM N=7
Method: Table 9 presents data from all patients (N=27) treated either with dexamethasone mouthwash alone, or dexamethasone mouthwash plus tacrolimus mouthwash at 8 mg (N=16), 10 mg (N=8), and 12 mg (N=3) IV QW. Median time on treatment (min, max) was 2.6 months for patients treated at 8 mg IV QW with dexamethasone mouthwash alone (N=13), 1.2 months for patients treated at 8 mg IV QW with dexamethasone mouthwash plus tacrolimus mouthwash (N=3), 0.9 months for patients treated at 10 mg IV QW with dexamethasone mouthwash alone (N=5), 2.0 months for patients treated at 10 mg IV QW with dexamethasone mouthwash plus tacrolimus mouthwash (N=3), 9.1 months for patients treated at 12 mg IV QW with dexamethasone mouthwash alone (N=2), and 0.4 months for patients treated at 12 mg IV QW with dexamethasone mouthwash plus tacrolimus mouthwash (N=1). […] Among all dose levels, the frequency of Grade 3 or worse events, frequency and severity of mucositis, and frequency of AEs leading to dose modification were lower in those patients treated with tacrolimus mouthwash.
Subjects received dexamethasone alone or dexamethasone plus tacrolimus mouthwash(es). […] At baseline (C1D1 predose), subjects rinse with the mouthwash(es) once at least 15 minutes prior to the first dose of study intervention. […]

For `CO[C@H]1C[C@@H]2CC[C@@H](C)[C@@](O)(O2)C(=O)C(=O)N2CCCC[C@H]2C(=O)O[C@H]([C@H](C)C[C@@H]2CC[C@@H](OC(=O)NCCOCCOCCOCCOCCOCCOCCOCCOCCC(=O)N3CCc4cc(Cn5nc(-c6ccc7oc(N)nc7c6)c6c(N)ncnc65)ccc4C3)[C@H](OC)C2)C[C@@H](O)[C@H](C)/C=C(\C)[C@@H](O)[C@@H](OC)C(=O)[C@H](C)C[C@H](C)/C=C/C=C/C=C/1C` [RMC-5552], which TGI ([1]; 1 mg/kg IP QW) is on record?
Its TGI is 64%.

And the TGI ([1]; 3 mg/kg IP QW)?
Its TGI is 93%.

And the TGI ([1]; 10 mg/kg IP QW)?
Its TGI is 93%.

And the tumor regression ([1]; dose not printed on this line)?
Its tumor regression is 15% regression.

And the tumor regression ([2]; 3 mg/kg IP QW)?
Its tumor regression is 91% regression.

And the tumor regression ([2]; 10 mg/kg IP QW)?
The tumor regression was 94% regression.

And the “maximum level of inhibition of p4EBP1 relative to control” value (tumor p4EBP1; MCF7, single IP dose)?
Its value is > 90%.

And the EC50 (tumor p4EBP1; unbound plasma concentration, MCF7, read-out: in vivo EC50 for inhibition of p4EBP1)?
The EC50 was 0.22 nM.

And the “rate of grade 3 mucositis/stomatitis” value (mucositis/stomatitis)?
Its value is 15%.

What about the rate of mucositis/stomatitis (mucositis/stomatitis) of the same molecule?
The rate of mucositis/stomatitis was 75%.
